The results in this text go back to patent US9611262B2, “Substituted 2-azabicycles and their use as orexin receptor modulators” (JANSSEN PHARMACEUTICA NV, priority 2014, dated 2017).

This assay deals with human orexin 2 receptor (Homo sapiens (Human), UniProt O43614). Put plainly: Human orexin 2 receptor radioligand binding ([3H]-EMPA competition). To be noted: HEK293 stably expressing human orexin 2 receptor; 2 nM [3H]-EMPA; averages of 2-20 runs; read-out: hOX2 Ki. Here is the method: The in vitro affinity of the compounds of the invention for the rat/human orexin 1 and human orexin 2 receptors was determined by competitive radioligand binding using [^3H](1-(5-(2-fluoro-phenyl)-2-methyl-thiazol-4-yl)-1-((S)-2-(5-phenyl-(1,3,4)oxadiazol-2-ylmethyl)-pyrrolidin-1-yl)-methanone) (Langmead et al., 2004) and [^3H]EMPA (n-ethyl-2[96-methoxy-pyridin-3-yl)-(toluene-2-sulfonyl)-amino]-N-pyridin-3-ylmethyl acetamide), respectively (Langmead et al., 2004, British Journal of Pharmacology 141:340-346; Malherbe et al., 2004, British Journal of Pharmacology 156:1326-41).
Chain of human orexin 2 receptor (O43614 whole entry): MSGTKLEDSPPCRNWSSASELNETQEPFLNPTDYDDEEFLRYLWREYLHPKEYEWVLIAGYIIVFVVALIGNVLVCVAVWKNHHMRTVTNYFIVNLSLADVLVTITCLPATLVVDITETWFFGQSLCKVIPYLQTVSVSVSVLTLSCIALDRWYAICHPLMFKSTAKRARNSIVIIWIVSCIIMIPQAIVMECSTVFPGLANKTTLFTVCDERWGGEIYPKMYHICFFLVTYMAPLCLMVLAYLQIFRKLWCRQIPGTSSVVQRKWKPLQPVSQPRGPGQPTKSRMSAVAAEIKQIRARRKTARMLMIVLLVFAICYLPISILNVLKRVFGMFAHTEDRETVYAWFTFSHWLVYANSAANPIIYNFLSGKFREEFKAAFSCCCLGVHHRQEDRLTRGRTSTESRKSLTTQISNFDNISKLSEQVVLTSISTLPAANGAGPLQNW
Data are analyzed using pc-Sandy macro and graphed on Graphpad Prism 5. For analysis, each concentration point is averaged from triplicate values and the averaged values are plotted on Graphpad Prism. The IC50 was determined by applying the following equation (GraphPad Prism 5.0, San Diego) for one site competition where X=log (concentration) and Y=specific binding. Top denotes the total [^3H]— (1-(5-(2-fluoro-phenyl)-2-methyl-thiazol-4-yl)-1-((S)-2-(5-phenyl-(1,3,4)oxadiazol-2-ylmethyl)-pyrrolidin-1-yl)-methanone) binding, bottom denotes the nonspecific [^3H]— (1-(5-(2-fluoro-phenyl)-2-methyl-thiazol-4-yl)-1-((S)-2-(5-phenyl-(1,3,4)oxadiazol-2-ylmethyl)-pyrrolidin-1-yl)-methanone) binding. Graphpad Prism calculates Ki value from IC50 and the pre-determined Kd values for [^3H]— (1-(5-(2-fluoro-phenyl)-2-methyl-thiazol-4-yl)-1-((S)-2-(5-phenyl-(1,3,4)oxadiazol-2-ylmethyl)-pyrrolidin-1-yl)-methanone) and [^3H]-EMPA. The Ki for each compound is then uploaded into 3DX. Each run comprises individual compounds in triplicate. The data in Table 1 and Table 2 represent averages from between 2-20 runs
Human Orexin 2 Receptor Radioligand Binding Studies
HEK293 stably expressing human orexin 2 receptor (Genebank accession number NM_001526) were grown to confluency in DMEM (Hyclone, cat # SH30022), 10% FBS, 1× Pen/Strep, 1× NaPyruvate, 10 mM HEPES, 600 μg/ml G418 media on 150 cm^2 tissue culture plates, washed with 5 mM EDTA in PBS (HyClone Dulbecco's Phosphate Buffered Saline 1× with Calcium and Magnesium, Cat # SH30264.01, hereafter referred to simply as PBS) and scraped into 50 ml tubes. After centrifugation (2K×G, 5 min at 4° C.), the supernatant was aspirated and the pellets frozen and stored at −80° C. Cells were resuspended in PBS in the presence of 1 tablet of protease inhibitor cocktail (Roche, Cat. #11836145001) per 50 mL. […] Compounds were solubilized in 100% DMSO (Acros Organics, Cat. #61042-1000) and tested over a range of 7 concentration (from 0.1 nM to 10 μM). The final concentration of DMSO in the reactions is equal to or less than 0.1%. Total and nonspecific binding was determined in the absence and presence of 10 μM almorexant. The total volume of each reaction is 200 μL (20 μL of diluted compounds, 80 μL of [^3H]-EMPA diluted in PBS and 100 μL of the cell suspension). Reactions were run for 60 min at room temperature and terminated by filtration through GF/C filter plates (PerkinElmer, Cat. #6005174) presoaked in 0.3% polyethylenimine using the cell harvester (PerkinElmer Filtermate). The plates were washed 3 times by aspirating 30 ml PBS through the plates. Plates were dried in 55° C. oven for 60 min, scintillation fluid was added, and the radioactivity was counted on a Topcount (Packard).

Broadly, the Ki is the equilibrium dissociation constant of an inhibitor or competing ligand from its target. With `CC1C2CC(Nc3cnc(C(F)(F)F)cn3)C(C2)N1C(=O)c1ccccc1-n1nccn1` (racemic) [Example 5, (R/S)-(2-(2H-1,2,3-triazol-2-yl)phenyl)(3-methyl-6-((5-(trifluoromethyl)pyrazin-2-yl)amino)-2-azabicyclo[2.2.1]heptan-2-yl)methanone], the Ki turned out to be 0.278 µM.

Regarding `CC1C2CC(Oc3ccc(C(F)(F)F)cn3)C(C2)N1C(=O)c1ncccc1-n1nccn1` (racemic) [Example 9, (R/S)-(3-(2H-1,2,3-triazol-2-yl)pyridin-2-yl)(3-methyl-6-((5-(trifluoromethyl)pyridin-2-yl)oxy)-2-azabicyclo[2.2.1]heptan-2-yl)methanone], the Ki is 3.7 µM.

For the compound `Cc1cnc(C(=O)N2C(C)C3CC(Oc4ccc(C(F)(F)F)cn4)C2C3)c(-n2nccn2)c1` (racemic) [Example 11, (R/S)-(5-methyl-3-(2H-1,2,3-triazol-2-yl)pyridin-2-yl)(3-methyl-6-((5-(trifluoromethyl)pyridin-2-yl)oxy)-2-azabicyclo[2.2.1]heptan-2-yl)methanone], the inhibitory constant (Ki) worked out at 2.1 µM.

On to `CCOc1ccc(C)nc1C(=O)N1C(C)C2CC(Oc3ccc(C(F)(F)F)cn3)C1C2` (racemic) [Example 13, (R/S)-(3-ethoxy-6-methylpyridin-2-yl)(3-methyl-6-((5-(trifluoromethyl)pyridin-2-yl)oxy)-2-azabicyclo[2.2.1]heptan-2-yl)methanone], for which the Ki stood at 1.6 µM.

On to `CC1C2CC(Oc3ccc(C(F)(F)F)cn3)C(C2)N1C(=O)c1cc(F)ccc1-c1ncccn1` (racemic) [Example 18, (R/S)-(5-fluoro-2-(pyrimidin-2-yl)phenyl)(−3-methyl-6-((5-(trifluoromethyl)pyridin-2-yl)oxy)-2-azabicyclo[2.2.1]heptan-2-yl)methanone], for which the inhibitory constant (Ki) was 1.6 µM.

Consider `CC1C2CC(Oc3ccc(C(F)(F)F)cn3)C(C2)N1C(=O)c1cccc(F)c1-c1ncc(F)cn1` (racemic) [Example 20, (R/S)-(3-fluoro-2-(5-fluoropyrimidin-2-yl)phenyl)(3-methyl-6-((5-(trifluoromethyl)pyridin-2-yl)oxy)-2-azabicyclo[2.2.1]heptan-2-yl)methanone], for which the Ki amounted to 3.1 µM.

With `Cc1cnc(C(=O)N2C(C)C3CC(Nc4ccc(C(F)(F)F)cn4)C2C3)c(-n2nccn2)c1` (racemic) [Example 61, (R/S)-(5-methyl-3-(2H-1,2,3-triazol-2-yl)pyridin-2-yl)(3-methyl-6-((5-(trifluoromethyl)pyridin-2-yl)amino)-2-azabicyclo[2.2.1]heptan-2-yl)methanone], the Ki stood at 0.585 µM.

Regarding `CC1C2CC(Nc3cnc(C(F)(F)F)cn3)C(C2)N1C(=O)c1ccccc1-n1nccn1` (racemic) [Example 68, (R/S)-(2-(2H-1,2,3-triazol-2-yl)phenyl)(3-methyl-6-((5-(trifluoromethyl)pyrazin-2-yl)amino)-2-azabicyclo[2.2.1]heptan-2-yl)methanone], the inhibitory constant (Ki) was found to be 0.625 µM.

On to `Cc1ccc(-n2nccn2)c(C(=O)N2C(CF)C3CC(Oc4ccc(C(F)(F)F)cn4)C2C3)n1` (racemic) [Example 70], for which the Ki was determined as 2 µM.

On to `Cc1cnc(-n2nccn2)c(C(=O)N2C(CF)C3CC(Oc4ccc(C(F)(F)F)cn4)C2C3)c1` (racemic) [Example 72], for which the Ki was more than 10 µM.

For `O=C(c1ccccc1-n1nccn1)N1C(CF)C2CC(Oc3ccc(C(F)(F)F)cn3)C1C2` (racemic) [Example 73, (R/S)-(2-(2H-1,2,3-triazol-2-yl)phenyl)(3-(fluoromethyl)-6-((5-(trifluoromethyl)pyridin-2-yl)oxy)-2-azabicyclo[2.2.1]heptan-2-yl)methanone], the Ki is 2 µM.

`Cc1ccc(-n2nccn2)c(C(=O)N2C(CC(C)C)C3CC(Oc4ccc(C(F)(F)F)cn4)C2C3)n1` (racemic) [Example 210, (R/S)-[2-isobutyl-5-[[5-(trifluoromethyl)-2-pyridyl]oxy]-3-azabicyclo[2.2.1]heptan-3-yl]-[6-methyl-3-(triazol-2-yl)-2-pyridyl]methanone]: the Ki was found to be 1.5 µM.

With `CC(C)CC1C2CC(Oc3ccc(C(F)(F)F)cn3)C(C2)N1C(=O)c1cccc(F)c1-c1ncccn1` (racemic) [Example 211, (R/S)-(3-fluoro-2-pyrimidin-2-yl-phenyl)-[2-isobutyl-5-[[5-(trifluoromethyl)-2-pyridyl]oxy]-3-azabicyclo[2.2.1]heptan-3-yl]methanone], the Ki amounted to 3.3 µM.

Turning to `CCC1C2CC(Oc3ccc(C(F)(F)F)cn3)C(C2)N1C(=O)c1ccccc1-c1ncccn1` (racemic) [Example 214, (R/S)-[2-ethyl-5-[[5-(trifluoromethyl)-2-pyridyl]oxy]-3-azabicyclo[2.2.1]heptan-3-yl]-(2-pyrimidin-2-ylphenyl)methanone], the Ki turned out to be 0.316 µM.

As for `C[C@@H]1[C@H]2C[C@@H](Oc3ccc(C(F)(F)F)cn3)[C@H](C2)N1C(=O)c1ncccc1-n1nccn1` (relative stereo) [Example 23, (3-(2H-1,2,3-triazol-2-yl)pyridin-2-yl)((1S*,3R*,4R*,6R*)-3-methyl-6-((5-(trifluoromethyl)pyridin-2-yl)oxy)-2-azabicyclo[2.2.1]heptan-2-yl)methanone], the Ki came to 2.4 µM.

`C[C@@H]1[C@H]2C[C@@H](Oc3ccc(C(F)(F)F)cn3)[C@H](C2)N1C(=O)c1c(F)cccc1-n1nccn1` (relative stereo) [Example 30, (2-fluoro-6-(2H-1,2,3-triazol-2-yl)phenyl)((1S*,3R*,4R*,6R*)-3-methyl-6-((5-(trifluoromethyl)pyridin-2-yl)oxy)-2-azabicyclo[2.2.1]heptan-2-yl)methanone]: the Ki was determined as 0.689 µM.

Turning to `C[C@@H]1[C@H]2C[C@@H](Oc3ccc(C(F)(F)F)cn3)[C@H](C2)N1C(=O)c1ccccc1-c1ncccn1` (relative stereo) [Example 33, ((1S*,3R*,4R*,6R*)-3-methyl-6-((5-(trifluoromethyl)pyridin-2-yl)oxy)-2-azabicyclo[2.2.1]heptan-2-yl)(2-(pyrimidin-2-yl)phenyl)methanone], the Ki came to 0.602 µM.

Turning to `Cc1cnc(C(=O)N2[C@H](C)[C@H]3C[C@@H](Oc4cnc(C(F)(F)F)cn4)[C@@H]2C3)c(-n2nccn2)c1` (relative stereo) [Example 48, (5-methyl-3-(2H-1,2,3-triazol-2-yl)pyridin-2-yl)((1S*,3R*,4R*,6R*)-3-methyl-6-((5-(trifluoromethyl)pyrazin-2-yl)oxy)-2-azabicyclo[2.2.1]heptan-2-yl)methanone], the Ki is more than 10 µM.

For `Cc1ccc(C(=O)N2[C@H](C)[C@H]3C[C@@H](Oc4cnc(C(F)(F)F)cn4)[C@@H]2C3)c(-n2nccn2)n1` (relative stereo) [Example 49, (6-methyl-2-(2H-1,2,3-triazol-2-yl)pyridin-3-yl)((1S*,3R*,4R*,6R*)-3-methyl-6-((5-(trifluoromethyl)pyrazin-2-yl)oxy)-2-azabicyclo[2.2.1]heptan-2-yl)methanone], the Ki is more than 10 µM.

As to `C[C@@H]1[C@H]2C[C@@H](Oc3cnc(C(F)(F)F)cn3)[C@H](C2)N1C(=O)c1ccc(F)cc1-n1nccn1` (relative stereo) [Example 53, (4-fluoro-2-(2H-1,2,3-triazol-2-yl)phenyl)((1S*,3R*,4R*,6R*)-3-methyl-6-((5-(trifluoromethyl)pyrazin-2-yl)oxy)-2-azabicyclo[2.2.1]heptan-2-yl)methanone], the Ki is 7.6 µM.
